Numbers after ± are expanded uncertainties.
Assay: refractive index (Na D-line) (dimensionless)
Conditions: 293.15 K; 101.33 kPa; Liquid; Standard Abbe refractometry

Row | Compound | refractive index
1 | CC(=O)O [acetic acid] | 1.3717 ± 0.0024
2 | CCO [ethanol] | 1.3616 ± 0.0024
3 | C=COC(C)=O [vinyl acetate] | 1.3926 ± 0.0024
4 | O [water] | 1.3328 ± 0.0024

From the NIST ThermoML archive (doi:10.1021/acs.jced.6b00794)
